Laboratory results reported in patent publication US11753407B2, “Compounds for treating spinal muscular atrophy” (PTC Therapeutics, Inc., priority 2012, dated 2023).

What was measured:
[1] = system: SMN2 minigene mRNA (SMN2-A minigene) in HEK293H cells; assay: SMN2 minigene mRNA splicing RT-qPCR assay in cultured cells; format: cell-based, human; details: Homo sapiens, HEK293-H; concentration increasing full length SMN2 mRNA 1.5-fold relative to vehicle-treated cells; HEK293H cells with SMN2-A minigene, 24 hours, 7-point concentration data; read-out: EC1.5x for production of full length SMN2 mRNA
Summary of the method: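 Read-out: minigene-specific full-length (exon 7-included) SMN2 mRNA by one-step multiplex RT-qPCR, normalized to GAPDH and divided by vehicle-treated level. Stable SMN2-A minigene HEK293H cells, 24 h compound exposure, 7 concentrations in duplicate. EC1.5× = concentration raising FL mRNA 1.5-fold.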

[2] = system: Smn protein in SMA patient fibroblast cells (GM03813); assay: Smn protein assay in cultured cells (SMN HTRF); format: cell-based, human; details: SMA patient fibroblast cells, 48 hours; for maximum fold (Fold) increase of Smn protein: 7-point concentration data, fold relative to vehicle control; for EC1.5x for Smn protein expression: 7-point concentration curve, SMN HTRF, concentration producing 1.5 times Smn protein vs DMSO vehicle control
Summary of the method: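 Read-out: HTRF 665/620 nm ratio, blank-subtracted as ΔF, then expressed as fold over DMSO vehicle. Fibroblasts from SMA patients were exposed to compounds for 48 h (7 points, 3.16-fold steps, triplicates). Values are EC1.5× and maximum fold Smn increase.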

| Compound | EC (1.5-fold increase) [1] | maximum fold (Fold) increase of Smn protein [2] | melting point | EC1.5x for Smn protein expression [2] |
| --- | --- | --- | --- | --- |
| COc1ccc(-c2cnc3cc(N4CCNCC4)ccn3c2=O)cc1OC [Cpd 52, 3-(3,4-dimethoxyphenyl)-8-(piperazin-1-yl)-4H-pyrido[1,2-a]pyrimidin-4-one] | 3 to 30 µM | * (A maximum fold increase of ≤1.2 is indicated by one star (*)) | 175 to 179 °C |  |
| COc1ccc(-c2cc(=O)n3cc(N4CCNCC4)cc(OC)c3n2)cc1OC [Cpd 70, 2-(3,4-dimethoxyphenyl)-9-methoxy-7-(piperazin-1-yl)-4H-pyrido[1,2-a]pyrimidin-4-one] | 1 to 3 µM | * (A maximum fold increase of ≤1.2 is indicated by one star (*)) | 185 to 187 °C |  |
| COc1ccc(-c2cc(=O)n3cc(N4CCNCC4)ccc3n2)cc1F [Cpd 72, 2-(3-fluoro-4-methoxyphenyl)-7-(piperazin-1-yl)-4H-pyrido[1,2-a]pyrimidin-4-one] | < 0.1 µM | *** (a fold increase between >1.35 and ≤1.5 is indicated by three stars (***)) | 191 to 195 °C | *** (an EC1.5× between >0.3 μM and ≤1 μM is indicated by three stars (***)) |
| Cc1cn2cc(-c3cc(=O)n4cc(N5CCNCC5)ccc4n3)nc2cn1 [Cpd 74, 2-(6-methylimidazo[1,2-a]pyrazin-2-yl)-7-(piperazin-1-yl)-4H-pyrido[1,2-a]pyrimidin-4-one] | < 0.1 µM | ***** (a fold increase >1.65 is indicated by five stars (*****)) | 221 to 225 °C | *** (an EC1.5× between >0.3 μM and ≤1 μM is indicated by three stars (***)) |
| COc1ccc(-c2cc(=O)n3cc(N4CCNCC4)ccc3n2)cc1OC(F)(F)F [Cpd 81, 2-[4-methoxy-3-(trifluoromethoxy)phenyl]-7-(piperazin-1-yl)-4H-pyrido[1,2-a]pyrimidin-4-one] | 0.3 to 1 µM | ** (a fold increase between >1.2 and ≤1.35 is indicated by two stars (**)) | 158 to 162 °C |  |
| O=c1cc(-c2ccc(O)c(OC(F)(F)F)c2)nc2ccc(N3CCNCC3)cn12 [Cpd 82, 2-[4-hydroxy-3-(trifluoromethoxy)phenyl]-7-(piperazin-1-yl)-4H-pyrido[1,2-a]pyrimidin-4-one] | 1 to 3 µM | ***** (a fold increase >1.65 is indicated by five stars (*****)) | 245 to 248 °C | ** (an EC1.5× between >1 μM and ≤3 μM is indicated by two stars (**)) |
| COc1ccc(-c2cc(=O)n3cc(N4CCNCC4)ccc3c2C#N)cc1OC [Cpd 85, 2-(3,4-dimethoxyphenyl)-4-oxo-7-(piperazin-1-yl)-4H-quinolizine-1-carbonitrile] | 1 to 3 µM | *** (a fold increase between >1.35 and ≤1.5 is indicated by three stars (***)) | 199 to 202 °C | * (An EC1.5× for Smn protein expression between >3 μM and ≤10 μM is indicated by one star (*)) |
| COc1ccc(-c2cc(=O)n3cc(N4CCN[C@@H](C)C4)ccc3c2)cc1OC [Cpd 91, 2-(3,4-dimethoxyphenyl)-7-[(3S)-3-methylpiperazin-1-yl]-4H-quinolizin-4-one] | 1 to 3 µM | ** (a fold increase between >1.2 and ≤1.35 is indicated by two stars (**)) | 243 to 245 °C |  |
| O=c1cc(-c2cncc(F)c2)nc2ccc(N3CCNCC3)cn12 [Cpd 92, 2-(5-fluoropyridin-3-yl)-7-(piperazin-1-yl)-4H-pyrido[1,2-a]pyrimidin-4-one] | 1 to 3 µM | ** (a fold increase between >1.2 and ≤1.35 is indicated by two stars (**)) | 201 to 208 °C |  |
| O=c1cc(-c2ccc3[nH]ccc3c2)nc2ccc(N3CCNCC3)cn12 [Cpd 98, 2-(1H-indol-5-yl)-7-(piperazin-1-yl)-4H-pyrido[1,2-a]pyrimidin-4-one] | 1 to 3 µM | *** (a fold increase between >1.35 and ≤1.5 is indicated by three stars (***)) | 266 to 272 °C |  |
| COc1ccc(-c2cc(=O)n3cc(N4CCNCC4)ccc3c2)cc1OC [Cpd 106, 2-(3,4-dimethoxyphenyl)-7-(piperazin-1-yl)-4H-quinolizin-4-one] | 0.3 to 1 µM | **** (a fold increase between >1.5 and ≤1.65 is indicated by four stars (****)) | 170 to 172 °C | ** (an EC1.5× between >1 μM and ≤3 μM is indicated by two stars (**)) |
| O=c1cc(-c2ccn3ccnc3c2)nc2ccc(N3CCNCC3)cn12 [Cpd 107, 2-(imidazo[1,2-a]pyridin-7-yl)-7-(piperazin-1-yl)-4H-pyrido[1,2-a]pyrimidin-4-one] | 0.3 to 1 µM | ** (a fold increase between >1.2 and ≤1.35 is indicated by two stars (**)) | 258 to 270 °C |  |
| Cc1cn2cc(-c3cc(=O)n4cc(N5CCNCC5)ccc4n3)ccc2n1 [Cpd 109, 2-(2-methylimidazo[1,2-a]pyridin-6-yl)-7-(piperazin-1-yl)-4H-pyrido[1,2-a]pyrimidin-4-one] | < 0.1 µM | **** (a fold increase between >1.5 and ≤1.65 is indicated by four stars (****)) | 259 to 267 °C | **** (an EC1.5x≤0.3 μM is indicated by four stars (****)) |
| O=c1cc(-c2cnc3[nH]ccc3c2)nc2ccc(N3CCNCC3)cn12 [Cpd 128, 7-(piperazin-1-yl)-2-(1H-pyrrolo[2,3-b]pyridin-5-yl)-4H-pyrido[1,2-a]pyrimidin-4-one] | 0.3 to 1 µM | *** (a fold increase between >1.35 and ≤1.5 is indicated by three stars (***)) | 252 to 255 °C |  |
| COc1ccc(-c2cc(=O)n3cc(C4=CCNCC4)ccc3n2)cc1OC [Cpd 143, 2-(3,4-dimethoxyphenyl)-7-(1,2,3,6-tetrahydropyridin-4-yl)-4H-pyrido[1,2-a]pyrimidin-4-one] | < 0.1 µM | ***** (a fold increase >1.65 is indicated by five stars (*****)) | 196 to 198 °C | **** (an EC1.5x≤0.3 μM is indicated by four stars (****)) |
| COc1ccc(-c2cc(=O)n3cc(C4CCNCC4)ccc3n2)cc1OC [Cpd 144, 2-(3,4-dimethoxyphenyl)-7-(piperidin-4-yl)-4H-pyrido[1,2-a]pyrimidin-4-one] | < 0.1 µM | **** (a fold increase between >1.5 and ≤1.65 is indicated by four stars (****)) | 214 to 217 °C | **** (an EC1.5x≤0.3 μM is indicated by four stars (****)) |
| CCOc1ccc(-c2cc(=O)n3cc(N4CCNCC4)ccc3n2)cc1F [Cpd 153, 2-(4-ethoxy-3-fluorophenyl)-7-(piperazin-1-yl)-4H-pyrido[1,2-a]pyrimidin-4-one] | 0.3 to 1 µM | ** (a fold increase between >1.2 and ≤1.35 is indicated by two stars (**)) | 180 to 186 °C |  |
| Cc1csc(-c2cc(=O)n3cc(N4CCNCC4)ccc3n2)n1 [Cpd 163, 2-(4-methyl-1,3-thiazol-2-yl)-7-(piperazin-1-yl)-4H-pyrido[1,2-a]pyrimidin-4-one] | 1 to 3 µM | *** (a fold increase between >1.35 and ≤1.5 is indicated by three stars (***)) | 142 to 147 °C |  |
| COc1ccc(-c2cc(=O)n3cc(C4CCN(C)CC4)ccc3n2)cc1OC [Cpd 164, 2-(3,4-dimethoxyphenyl)-7-(1-methylpiperidin-4-yl)-4H-pyrido[1,2-a]pyrimidin-4-one] | 0.3 to 1 µM | **** (a fold increase between >1.5 and ≤1.65 is indicated by four stars (****)) | 181 to 183 °C | ** (an EC1.5× between >1 μM and ≤3 μM is indicated by two stars (**)) |
| Cc1nc2ccc(-c3cc(=O)n4cc(N5CCN(C)CC5)ccc4n3)cc2o1 [Cpd 171, 2-(2-methyl-1,3-benzoxazol-6-yl)-7-(4-methylpiperazin-1-yl)-4H-pyrido[1,2-a]pyrimidin-4-one] | < 0.1 µM | ***** (a fold increase >1.65 is indicated by five stars (*****)) | 178 to 183 °C | **** (an EC1.5x≤0.3 μM is indicated by four stars (****)) |
| Cc1cn(-c2cc(=O)n3cc(N4CCNCC4)ccc3n2)cn1 [Cpd 179, 2-(4-methyl-1H-imidazol-1-yl)-7-(piperazin-1-yl)-4H-pyrido[1,2-a]pyrimidin-4-one] | 0.3 to 1 µM | ***** (a fold increase >1.65 is indicated by five stars (*****)) | 204 to 206 °C | *** (an EC1.5× between >0.3 μM and ≤1 μM is indicated by three stars (***)) |
